Results from PubChem BioAssay AID1963979 (Molecular Pharmacology Branch, DTP, NCI, 2024).
pIC50: −log10 of the molar value.

System: 361931-004-R-J1-PDC multicell spheroid viability
Experiment: Anticancer human tumor 361931-004-R-J1-PDC patient-derived colon adenocarcinoma cell line growth inhibition [PI3K]
Conditions: for pIC50: curve of first compound; for viability, T/C: stronger effect = lower value
Summary of the method: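 Three cell types, namely tumor cells, endothelial cells and mesenchymal stem cells, formed each spheroid. Combinations with four PI3K inhibitors were screened at clinically achievable concentrations decreasing by half-log, and spheroid viability was recorded.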

[1] = second compound 0.0316 µM, first compound 0.0316 µM
[2] = second compound 0.0316 µM, first compound 0.1 µM
[3] = second compound 0.0316 µM, first compound 0.316 µM
[4] = second compound 0.0316 µM, first compound 1 µM
[5] = second compound 0.0316 µM, first compound 3.16 µM
[6] = second compound 0.0316 µM, first compound 10 µM
[7] = second compound 0.1 µM, first compound 0.0316 µM
[8] = second compound 0.1 µM, first compound 0.1 µM
[9] = second compound 0.1 µM, first compound 0.316 µM
[10] = second compound 0.1 µM, first compound 1 µM
[11] = second compound 0.1 µM, first compound 3.16 µM
[12] = second compound 0.1 µM, first compound 10 µM
[13] = second compound 0.316 µM, first compound 0.0316 µM
[14] = second compound 0.316 µM, first compound 0.1 µM
[15] = second compound 0.316 µM, first compound 0.316 µM
[16] = second compound 0.316 µM, first compound 1 µM
[17] = second compound 0.316 µM, first compound 3.16 µM
[18] = second compound 0.316 µM, first compound 10 µM
[19] = second compound 1 µM, first compound 0.0316 µM
[20] = second compound 1 µM, first compound 0.1 µM
[21] = second compound 1 µM, first compound 0.316 µM
[22] = second compound 1 µM, first compound 1 µM
[23] = second compound 1 µM, first compound 3.16 µM
[24] = second compound 1 µM, first compound 10 µM
[25] = second compound 3.16 µM, first compound 0.0316 µM
[26] = second compound 3.16 µM, first compound 0.1 µM
[27] = second compound 3.16 µM, first compound 0.316 µM
[28] = second compound 3.16 µM, first compound 1 µM
[29] = second compound 3.16 µM, first compound 3.16 µM
[30] = second compound 3.16 µM, first compound 10 µM
[31] = second compound 10 µM, first compound 0.0316 µM
[32] = second compound 10 µM, first compound 0.1 µM
[33] = second compound 10 µM, first compound 0.316 µM
[34] = second compound 10 µM, first compound 1 µM
[35] = second compound 10 µM, first compound 3.16 µM
[36] = second compound 10 µM, first compound 10 µM
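Further: spheroids exposed to agents for seven days before readout.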

Cn1ncc(Cl)c1-c1cc(C(=O)NC(CN)Cc2cccc(F)c2)sc1Cl (stereo unspecified) + CC(Nc1ncnc2nc[nH]c12)c1cc2cccc(Cl)c2c(=O)n1-c1ccccc1 was tested, and the pIC50 (second compound 0.0316 µM) was 5.53, the pIC50 (second compound 0.1 µM) was 5.48 and the pIC50 (second compound 0.316 µM) was 5.66. For the same molecule, the pIC50 (second compound 1 µM) was 5.59, the pIC50 (second compound 3.16 µM) was 5.66 and the pIC50 (second compound 10 µM) was 5.60. For the same molecule, the viability, T/C [1] was 95.2%, the viability, T/C [2] was 98.3% and the viability, T/C [3] was 88.7%. The viability, T/C [4] was 70.6%, the viability, T/C [5] was 49.7% and the viability, T/C [6] was 32.1%. The viability, T/C [7] was 103%, the viability, T/C [8] was 104% and the viability, T/C [9] was 92.7%. For the same molecule, the viability, T/C [10] was 77.5%, the viability, T/C [11] was 50.8% and the viability, T/C [12] was 30.9%. For the same molecule, the viability, T/C [13] was 106%, the viability, T/C [14] was 108% and the viability, T/C [15] was 90.8%. The viability, T/C [16] was 60.4%, the viability, T/C [17] was 48.5% and the viability, T/C [18] was 27.1%. The viability, T/C [19] was 111%, the viability, T/C [20] was 101% and the viability, T/C [21] was 90.1%. It also gave a viability, T/C [22] of 61.8%, a viability, T/C [23] of 49.9% and a viability, T/C [24] of 31%. It also gave a viability, T/C [25] of 105%, a viability, T/C [26] of 105% and a viability, T/C [27] of 89.4%. It also gave a viability, T/C [28] of 65.4%, a viability, T/C [29] of 44.4% and a viability, T/C [30] of 24.5%. The viability, T/C [31] was 97.2%, the viability, T/C [32] was 95.8% and the viability, T/C [33] was 89.5%. The viability, T/C [34] was 75.4%, the viability, T/C [35] was 43% and the viability, T/C [36] was 25%.

For Cn1nccc1Nc1nccc(-c2ccn(C(CO)c3ccc(Cl)c(F)c3)c(=O)c2)n1 (stereo unspecified) + CC(Nc1ncnc2nc[nH]c12)c1cc2cccc(Cl)c2c(=O)n1-c1ccccc1, the pIC50 (second compound 0.0316 µM) was < 5.00, the pIC50 (second compound 0.1 µM) was < 5.00 and the pIC50 (second compound 0.316 µM) was < 5.00. The pIC50 (second compound 1 µM) was < 5.00, the pIC50 (second compound 3.16 µM) was 5.01 and the pIC50 (second compound 10 µM) was 5.29. It also gave a viability, T/C [1] of 101%, a viability, T/C [2] of 98.8% and a viability, T/C [3] of 100%. For the same molecule, the viability, T/C [4] was 97.7%, the viability, T/C [5] was 87.9% and the viability, T/C [6] was 60.2%. It also gave a viability, T/C [7] of 101%, a viability, T/C [8] of 99.4% and a viability, T/C [9] of 97%. It also gave a viability, T/C [10] of 93.2%, a viability, T/C [11] of 86.7% and a viability, T/C [12] of 65.2%. It also gave a viability, T/C [13] of 107%, a viability, T/C [14] of 107% and a viability, T/C [15] of 86.5%. It also gave a viability, T/C [16] of 93.8%, a viability, T/C [17] of 89.4% and a viability, T/C [18] of 61.3%. The viability, T/C [19] was 109%, the viability, T/C [20] was 99.5% and the viability, T/C [21] was 99.3%. For the same molecule, the viability, T/C [22] was 90.8%, the viability, T/C [23] was 92.6% and the viability, T/C [24] was 56.5%. The viability, T/C [25] was 107%, the viability, T/C [26] was 105% and the viability, T/C [27] was 100%. For the same molecule, the viability, T/C [28] was 92.2%, the viability, T/C [29] was 87.1% and the viability, T/C [30] was 48.3%. For the same molecule, the viability, T/C [31] was 109%, the viability, T/C [32] was 99.5% and the viability, T/C [33] was 92.1%. It also gave a viability, T/C [34] of 83.8%, a viability, T/C [35] of 64.1% and a viability, T/C [36] of 31.4%.

For Cn1ncnc1[C@H]1c2n[nH]c(=O)c3cc(F)cc(c23)N[C@@H]1c1ccc(F)cc1 + Cc1nc(NC(=O)N2CCCC2C(N)=O)sc1-c1ccnc(C(C)(C)C(F)(F)F)c1, the pIC50 (second compound 0.0316 µM) was < 7.00, the pIC50 (second compound 0.1 µM) was < 7.00 and the pIC50 (second compound 0.316 µM) was < 7.00. For the same molecule, the pIC50 (second compound 1 µM) was < 7.00, the pIC50 (second compound 3.16 µM) was < 7.00 and the pIC50 (second compound 10 µM) was 7.32. The viability, T/C (second compound 0.0316 µM, first compound 0.000316 µM) was 98%, the viability, T/C (second compound 0.0316 µM, first compound 0.001 µM) was 93.1% and the viability, T/C (second compound 0.0316 µM, first compound 0.00316 µM) was 97.3%. It also gave a viability, T/C (second compound 0.0316 µM, first compound 0.01 µM) of 93%, a viability, T/C [1] of 79.8% and a viability, T/C [2] of 85.3%. It also gave a viability, T/C (second compound 0.1 µM, first compound 0.000316 µM) of 109%, a viability, T/C (second compound 0.1 µM, first compound 0.001 µM) of 93.6% and a viability, T/C (second compound 0.1 µM, first compound 0.00316 µM) of 94.5%. The viability, T/C (second compound 0.1 µM, first compound 0.01 µM) was 93.2%, the viability, T/C [7] was 86.5% and the viability, T/C [8] was 76.8%. It also gave a viability, T/C (second compound 0.316 µM, first compound 0.000316 µM) of 98.2%, a viability, T/C (second compound 0.316 µM, first compound 0.001 µM) of 86.1% and a viability, T/C (second compound 0.316 µM, first compound 0.00316 µM) of 81.7%. For the same molecule, the viability, T/C (second compound 0.316 µM, first compound 0.01 µM) was 81.8%, the viability, T/C [13] was 83.5% and the viability, T/C [14] was 80.8%. It also gave a viability, T/C (second compound 1 µM, first compound 0.000316 µM) of 87.3%, a viability, T/C (second compound 1 µM, first compound 0.001 µM) of 73.4% and a viability, T/C (second compound 1 µM, first compound 0.00316 µM) of 84.5%. It also gave a viability, T/C (second compound 1 µM, first compound 0.01 µM) of 79.4%, a viability, T/C [19] of 90.1% and a viability, T/C [20] of 70.3%. It also gave a viability, T/C (second compound 3.16 µM, first compound 0.000316 µM) of 70.4%, a viability, T/C (second compound 3.16 µM, first compound 0.001 µM) of 81.8% and a viability, T/C (second compound 3.16 µM, first compound 0.00316 µM) of 77.4%. The viability, T/C (second compound 3.16 µM, first compound 0.01 µM) was 66.9%, the viability, T/C [25] was 72.6% and the viability, T/C [26] was 62.2%. The viability, T/C (second compound 10 µM, first compound 0.000316 µM) was 62.2%, the viability, T/C (second compound 10 µM, first compound 0.001 µM) was 54.5% and the viability, T/C (second compound 10 µM, first compound 0.00316 µM) was 54%. For the same molecule, the viability, T/C (second compound 10 µM, first compound 0.01 µM) was 56.6%, the viability, T/C [31] was 47.9% and the viability, T/C [32] was 49.2%.
